Assay results as given in ChEMBL document CHEMBL1201862, “PubChem BioAssay data set” (2004).
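These data come from cells grown in 96-well plates and exposed to compound for 48 hours at five concentrations. GI50: concentration for 50% inhibition of growth.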 Activity calls are given as the source filed them. Rule as the data show it: active = GI50 up to about 1.1 µM and inactive = higher.

Tests used:
Test in all cases: NCI anticancer screen, dose series, 48 h
[1] = system: SK-MEL-2
[2] = system: OVCAR-3
[3] = system: 786-0
[4] = system: DMS-114
[5] = system: M19-MEL
[6] = system: HOP-62
[7] = system: XF498
[8] = system: M14
[9] = system: OVCAR-4
[10] = system: SN12C
[11] = system: NCI-H460
[12] = system: SK-MEL-5
[13] = system: SK-OV-3
[14] = system: ACHN
[15] = system: SNB-19
[16] = system: HL-60

Measured: GI50

O=C1/C(=C/c2ccccc2)CCCC/C1=C\c1ccccc1
inactive: [1] 47.9 µM | [2] > 100 µM | [3] 65.8 µM | [4] 42.5 µM | [5] 48.5 µM | [6] > 100 µM | [7] 54.5 µM | [8] > 100 µM | [9] 75 µM | [10] > 100 µM | [11] 51.3 µM | [12] 24.1 µM | [13] > 100 µM | [14] 78.7 µM | [15] > 100 µM

c1cc2c(cc1C1OCC3C(c4ccc5c(c4)OCO5)OCC13)OCO2 (stereo unspecified)
inactive: [1] 98.2 µM | [2] 84.1 µM | [3] > 100 µM | [4] 40.4 µM | [5] 51.2 µM | [6] > 100 µM | [7] 28.8 µM | [8] 66.8 µM | [9] > 100 µM | [10] 92.3 µM | [11] 75.3 µM | [12] 28.4 µM | [13] > 100 µM | [14] 80.7 µM | [15] > 100 µM

Cc1ccc(N(C(=O)CC(=O)NN)C(=O)c2ccccc2Cl)cc1
inactive: [2] > 100 µM | [3] > 100 µM | [4] > 100 µM | [5] > 100 µM | [6] > 100 µM | [7] > 100 µM | [8] > 100 µM | [9] > 100 µM | [16] > 100 µM | [10] > 100 µM | [11] > 100 µM | [13] > 100 µM | [14] > 100 µM | [15] > 100 µM

COC(=O)CC(c1ccccc1)C1(c2ccccc2)SCCS1 (stereo unspecified)
inactive: [1] 261 µM | [2] 55.1 µM | [3] > 290 µM | [4] 121 µM | [5] > 290 µM | [6] 266 µM | [7] > 290 µM | [16] 141 µM | [10] 185 µM | [11] 261 µM | [12] 189 µM | [13] > 290 µM | [14] > 290 µM | [15] > 290 µM

COC(=O)c1nn(C(=N)c2ccc(Cl)cc2)c2c1CCC2
inactive: [1] > 100 µM | [3] > 100 µM | [4] > 100 µM | [5] > 100 µM | [6] > 100 µM | [7] > 100 µM | [8] > 100 µM | [9] > 100 µM | [16] > 100 µM | [10] > 100 µM | [11] > 100 µM | [12] > 100 µM | [13] > 100 µM | [14] > 100 µM | [15] > 100 µM

Cn1nc(N)nc1N=S(C)(C)=N
inactive: [1] > 100 µM | [2] > 100 µM | [3] > 100 µM | [4] > 100 µM | [6] > 100 µM | [7] > 100 µM | [8] > 100 µM | [9] > 100 µM | [16] > 100 µM | [10] > 100 µM | [11] > 100 µM | [12] > 100 µM | [13] > 100 µM | [14] > 100 µM | [15] > 100 µM

CCCCN(CCCC)C(=O)/C(CC(=O)c1cccc2ccccc12)=N\NC(=O)c1cc2ccccc2cc1O
inactive: [1] 14.1 µM | [2] 14.4 µM | [3] 20.3 µM | [5] 20.4 µM | [6] 20 µM | [7] 20 µM | [8] 21.9 µM | [9] 25.6 µM | [16] 3.2 µM | [10] 18.5 µM | [11] 18.4 µM | [12] 13.5 µM | [14] 16.9 µM | [15] 26.1 µM

C=CCC1(CN(C)C)CC/C(=C\c2ccc3c(c2)OCO3)C1=O (stereo unspecified)
inactive: [1] > 100 µM | [2] 65.3 µM | [3] 44.8 µM | [5] 39.6 µM | [6] > 100 µM | [8] 56.9 µM | [9] 67.5 µM | [16] 4.32 µM | [10] > 100 µM | [11] 50.4 µM | [12] 22.7 µM | [14] 31.6 µM | [15] > 100 µM

O=C1CCCCCCCCCCC(=O)C2CCOCCOCCOCCC1Cc1cccc(n1)C2
inactive: [1] > 100 µM | [2] 40.6 µM | [3] > 100 µM | [4] 77.6 µM | [5] > 100 µM | [6] > 100 µM | [7] 59.7 µM | [8] 67.6 µM | [9] 51.5 µM | [10] 64.9 µM | [11] 99.1 µM | [12] 42.4 µM | [13] > 100 µM | [14] 69.8 µM | [15] > 100 µM

CCCOc1nc(N)c2cnn(C3CCCCO3)c2n1 (stereo unspecified)
inactive: [1] > 100 µM | [2] > 100 µM | [3] > 100 µM | [4] > 100 µM | [5] > 100 µM | [6] > 100 µM | [8] > 100 µM | [9] > 100 µM | [16] > 100 µM | [10] > 100 µM | [11] > 100 µM | [12] > 100 µM | [13] > 100 µM | [14] > 100 µM | [15] > 100 µM

CN(C)C(=S)/N=c1\ss/c(=N\C(=S)N(C)C)n1-c1ccc2c(c1)OCO2
inactive: [1] > 100 µM | [2] > 100 µM | [3] > 100 µM | [4] 5.11 µM | [6] > 100 µM | [8] > 100 µM | [9] 4.19 µM | [16] 3.27 µM | [10] > 100 µM | [12] > 100 µM | [13] > 100 µM | [14] > 100 µM | [15] > 100 µM

COC(=O)C(CC(=O)c1c[nH]c2ccccc12)c1c[nH]c2ccccc12 (stereo unspecified)
inactive: [1] 20.1 µM | [2] > 10 µM | [3] 23.9 µM | [4] 15.8 µM | [5] > 10 µM | [6] 21.5 µM | [7] 17.9 µM | [8] 18.2 µM | [9] 17.1 µM | [16] 20.1 µM | [11] 18.8 µM | [12] 16.4 µM | [13] 41.9 µM | [14] 16.3 µM

COc1cc2c[n+](C)c3c4cc(OC)c(OC(C)C)cc4ccc3c2cc1OC
inactive: [1] 20.1 µM | [2] 10.5 µM | [3] > 100 µM | [4] 5.85 µM | [5] 18.4 µM | [6] > 100 µM | [8] 84.9 µM | [9] 62.7 µM | [16] 35.2 µM | [10] 37.8 µM | [11] 75.3 µM | [12] 23.4 µM | [13] > 100 µM | [14] > 100 µM | [15] 51.8 µM

COc1ccc(/C=C2\CCC(CCN(C)C)(C3=CCCC3)C2=O)cc1 (stereo unspecified)
inactive: [1] 17.6 µM | [2] 19.1 µM | [3] 15.3 µM | [4] 15.6 µM | [5] 15.1 µM | [6] 18 µM | [8] 15.1 µM | [9] 19.7 µM | [16] 15.9 µM | [10] 19.9 µM | [11] 20.1 µM | [12] 16.5 µM | [14] 16.9 µM | [15] 16.6 µM
